The values below come from ChEMBL document CHEMBL1765080, “Synthesis, biological evaluation and molecular modeling of novel triazole-containing berberine derivatives as acetylcholinesterase and β-amyloid aggregation inhibitors” (Bioorg Med Chem, 2011).

Assay [1] can be described thus: Ratio of IC50 for equine serum Butyrylcholinesterase to IC50 for electric eel Acetylcholinesterase.
In another assay the target is Acetylcholinesterase (Electrophorus electricus, UniProt O42275). Put plainly: Inhibition of electric eel Acetylcholinesterase.
Acetylcholinesterase, sequence (O42275 whole entry): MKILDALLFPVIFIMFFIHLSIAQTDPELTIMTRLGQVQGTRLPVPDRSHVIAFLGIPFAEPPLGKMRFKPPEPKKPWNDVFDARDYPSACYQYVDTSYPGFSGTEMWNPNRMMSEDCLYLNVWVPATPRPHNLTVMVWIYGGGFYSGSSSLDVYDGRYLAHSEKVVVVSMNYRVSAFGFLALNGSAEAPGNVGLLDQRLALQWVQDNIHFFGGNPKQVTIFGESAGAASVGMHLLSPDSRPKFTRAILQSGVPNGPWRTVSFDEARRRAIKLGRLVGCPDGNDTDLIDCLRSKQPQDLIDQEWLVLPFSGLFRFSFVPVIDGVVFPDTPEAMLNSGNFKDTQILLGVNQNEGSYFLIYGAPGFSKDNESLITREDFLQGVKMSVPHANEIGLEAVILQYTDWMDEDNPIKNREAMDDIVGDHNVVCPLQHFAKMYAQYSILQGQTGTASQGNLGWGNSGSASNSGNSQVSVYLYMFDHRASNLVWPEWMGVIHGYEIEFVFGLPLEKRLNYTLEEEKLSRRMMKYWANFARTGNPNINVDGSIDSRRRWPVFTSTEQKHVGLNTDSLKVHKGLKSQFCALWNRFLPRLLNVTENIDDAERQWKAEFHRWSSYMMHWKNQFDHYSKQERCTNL
Another assay deals with Butyrylcholinesterase (Equus caballus, UniProt Q9N1N9). Put plainly: Inhibition of equine serum Butyrylcholinesterase.
Butyrylcholinesterase, sequence (Q9N1N9 whole entry): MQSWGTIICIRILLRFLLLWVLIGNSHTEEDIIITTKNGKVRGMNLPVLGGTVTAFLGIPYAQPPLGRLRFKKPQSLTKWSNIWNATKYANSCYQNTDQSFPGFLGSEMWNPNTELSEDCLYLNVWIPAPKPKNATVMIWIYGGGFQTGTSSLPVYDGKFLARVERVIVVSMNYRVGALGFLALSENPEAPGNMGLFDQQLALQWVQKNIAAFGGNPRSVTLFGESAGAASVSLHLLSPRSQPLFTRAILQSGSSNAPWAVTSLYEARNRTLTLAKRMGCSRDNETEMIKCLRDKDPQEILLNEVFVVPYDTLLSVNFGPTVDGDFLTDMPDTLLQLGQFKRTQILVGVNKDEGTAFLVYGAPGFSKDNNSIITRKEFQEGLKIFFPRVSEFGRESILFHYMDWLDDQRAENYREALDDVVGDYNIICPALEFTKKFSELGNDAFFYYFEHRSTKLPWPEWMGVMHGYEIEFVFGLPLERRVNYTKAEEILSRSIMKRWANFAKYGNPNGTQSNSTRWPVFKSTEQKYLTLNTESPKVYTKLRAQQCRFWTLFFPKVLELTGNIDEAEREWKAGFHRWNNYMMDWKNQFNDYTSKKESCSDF
A short description of assay [2]: Inhibition of amyloid-beta (1 to 42) aggregation at 20 uM after 48 hrs by fluorescence analysis using thioflavin T.

The structures appear in SMILES notation.

For the compound `CCCN(CCC)c1cn(CCCOc2c(OC)ccc3cc4[n+](cc23)CCc2cc3c(cc2-4)OCO3)nn1`, in assay [1], the Ratio IC50 was determined as 11.3. In addition, the figures for the IC50 against Acetylcholinesterase and against Butyrylcholinesterase were 0.14 µM and 1.58 µM, respectively.

On to `COc1ccc2cc3[n+](cc2c1OCCCn1cc(-c2ccccc2)nn1)CCc1cc2c(cc1-3)OCO2`, for which the Ratio IC50 in assay [1] came to 7.13. Also, the IC50 on Acetylcholinesterase came to 0.31 µM; against Butyrylcholinesterase it was 2.21 µM.

In assay [2], `CCCCN(CCCC)c1cn(CCCCOc2c(OC)ccc3cc4[n+](cc23)CCc2cc3c(cc2-4)OCO3)nn1` gave an inhibition of 71.7%. In assay [1], the Ratio IC50 is 11.6. Besides, the IC50 on Acetylcholinesterase amounted to 0.469 µM; against Butyrylcholinesterase it was 5.46 µM.

Turning to `COc1ccc2cc3[n+](cc2c1OCCCCn1cc(-c2ccccc2)nn1)CCc1cc2c(cc1-3)OCO2`, the inhibition in assay [2] came out at 60.6%. In addition, in assay [1], the Ratio IC50 came to 1.14. Further, the IC50 against Acetylcholinesterase came to 1.32 µM; against Butyrylcholinesterase, 1.5 µM.

`CCCCc1cn(CCCOc2c(OC)ccc3cc4[n+](cc23)CCc2cc3c(cc2-4)OCO3)nn1`: in assay [1], the Ratio IC50 stood at 24.6. Besides, the values for the IC50 at Acetylcholinesterase and against Butyrylcholinesterase were 0.165 µM and 4.06 µM, respectively.

Turning to `CCCN(CCC)c1cn(CCCCOc2c(OC)ccc3cc4[n+](cc23)CCc2cc3c(cc2-4)OCO3)nn1`, in assay [2], the inhibition was 62.5%. Moreover, in assay [1], the Ratio IC50 amounted to 17.7. For the same compound, the IC50 on Acetylcholinesterase worked out at 0.27 µM; against Butyrylcholinesterase it was 4.77 µM.

Regarding `CCCCN(CCCC)c1cn(CCCOc2c(OC)ccc3cc4[n+](cc23)CCc2cc3c(cc2-4)OCO3)nn1`, in assay [1], the Ratio IC50 stood at 8.48. Further, the IC50 against Acetylcholinesterase was 0.243 µM; against Butyrylcholinesterase, 2.06 µM.

As for `CCCCc1cn(CCCCOc2c(OC)ccc3cc4[n+](cc23)CCc2cc3c(cc2-4)OCO3)nn1`, the inhibition in assay [2] was found to be 77.9%. In addition, in assay [1], the Ratio IC50 worked out at 10. Further, the IC50 on Acetylcholinesterase amounted to 0.201 µM; against Butyrylcholinesterase, 2.02 µM.

In assay [2], `COc1ccc2cc3[n+](cc2c1OC)CCc1cc2c(cc1-3)OCO2` had an inhibition of 36.3%.

The term IC50 denotes the concentration at which inhibition is half-maximal. A high value points to weaker potency. The term inhibition denotes the percentage by which the read-out fell short of the control. Higher therefore signals a strong effect.
